According to patent US20070212360A1, “Modulation of mitochondrial oxygen consumption for therapeutic purposes” (priority 2006, published 2007):

Legend:
[1] = tested on: RKO and RKOShHIF1α tumors; assay: Tumor hypoxia by pimonidazole immunofluorescence; type: in vivo, mouse
Procedure: FIG. 9. Increasing oxygen consumption by inhibition of HIF increases tumor hypoxia. (a-d) Pimonidazole staining of tumor sections from RKO (a,b) and RKOShHIF1α (c,d) tumors 24 h after treatment with PBS (a,c) or echinomycin (b,d). The tumor section is outlined in white, pimonidazole staining is shown in green, and the necrotic areas and cutting artifacts are shown in gray. (e) The mean hypoxic fraction of RKO and RKOShHIF1α tumors 24 h after treatment with PBS or echinomycin (n=4-5 tumors per group). Error bars represent the standard error of the mean. (*) indicates a significant difference (p<0.05).
Detection of tumor hypoxia by pimonidazole immunofluorescence. Mice bearing 100-300 mm^3 subcutaneous RKO and RKOshHIF tumors on either flank were treated with 0.12 mg/kg echinomycin ip or saline control, and 24 h later they were injected with the hypoxia marker drug pimonidazole (60 mg/kg ip) (Millipore, Temecula, Calif.). Three hours after pimonidazole injection, tumors were excised, and frozen in Tissue-Tek O.C.T. compound. Frozen sections (10 μm thick) from the center regions of tumors were cut, air dried, and fixed for 15 min in acetone at 4 C. Slides were then air dried, rehydrated in PBS, and blocked for 30 min in 4% FBS, 5% non-fat milk, and 0.1% Triton X-100 in PBS. Slides were incubated for 1 hr at room temperature with a FITC-conjugated monoclonal antibody against pimonidazole (Millipore) diluted 1:20 in blocking solution. Slides were washed, counterstained with 50 nM propidium iodide (PI), and mounted under a coverslip in Vectashield medium (Vector Labs, Burlingame, Calif.).
FITC and Pi fluorescent signals for entire tumor sections (one section per tumor) were acquired using a 4× objective lens on a Nikon Eclipse E800 microscope equipped with a motorized scanning stage, a 12-bit QImaging camera (OImaging, Burnaby, Canada), and Bioquant imaging software (Bioquant, Nashville, Tenn.). Acquisition parameters were held constant for all samples. ImageJ software (NIH, Bethesda, Md.) was used to analyze the resulting tiled images. […]

[2] = tested on: HIF1 responsive luciferase reporter in RKO cells; assay: 5×HRE-luciferase reporter assay in vitro; type: cell-based, human; conditions: 0.5% O2 24 h, increasing concentrations, dose dependent
Procedure: FIG. 8. Increasing oxygen consumption by inhibition of PDK activity increases tumor hypoxia. (a) Luciferase activity of wildtype and HIF1α knockdown RKO cells stably transfected with a HIF1 responsive luciferase reporter gene. Cells were exposed to 0.5% O2 for 24 hours in triplicate. Luminescence is normalized to normoxic HIF wildtype cells. (b) Luciferase activity of wildtype RKO HIF1 reporter cells exposed to 0.5% O2 for 24 hours in the presence of increasing concentrations of echinomycin. Data are normalized to the increase in signal observed in the absence of drug. (c) Bioluminescent imaging in vivo. Images show a representative animal bearing an RKO reporter tumor on the left flank and an RKOShHIF1α reporter tumor on the right flank as a function of time after ip injection of 50 mg/kg DCA. […] (d) Quantification of in vivo bioluminescence. […] The data represent the mean of three independent experiments, each comprising 5 RKO and 5 RKOShHIF1α reporter tumors.
Luciferase reporter assay. […] Cells were exposed to 0.5% O2 for 24 hr, and luciferase activity was measured in triplicate using a luciferase reporter gene assay kit (Roche) and a Monolight 2010 luminometer (Analytical Luminescence Laboratory). […]

[3] = 24 h after 0.12 mg/kg echinomycin ip vs vehicle

Which results are given for `CS[C@H]1SC[C@H]2C(=O)N(C)[C@@H](C(C)C)C(=O)OC[C@@H](NC(=O)c3cnc4ccccc4n3)C(=O)N[C@@H](C)C(=O)N(C)[C@@H]1C(=O)N(C)[C@@H](C(C)C)C(=O)OC[C@@H](NC(=O)c1cnc3ccccc3n1)C(=O)N[C@@H](C)C(=O)N2C` [echinomycin]?
extent of hypoxia in RKOShHIF1α tumors (pimonidazole) [1, 3]: no significant effect; hypoxic fraction of RKO tumors (pimonidazole) [1, 3]: increase in the hypoxic fraction; extent of necrosis in tumor sections ([1]; four treatment groups (RKO, RKOShHIF1α; echinomycin or vehicle)): no difference; hypoxic induction of luciferase in RKO reporter cells in vitro [2]: completely inhibited
